Values joined by “and” are separate entries in the source; they are usually repeats but may differ in a detail not shown here. Identical values can stand only once. Like-named read-outs stand apart in the source and are kept apart here.
Legend:
head lice [1] = conditions: cited from earlier work
SF-HL strain = conditions: Moon et al. 2003; cited from earlier work
head lice [2] = conditions: cited from earlier work; remark: listed apart in the source
[3] = test system: SF-HL strain of permethrin-resistant human head lice; assay: Hair tuft mortality bioassay, permethrin-resistant SF-HL lice; type: in vivo, Pediculus humanus capitis; parameters: LT50 (lethal time to 50% mortality): unit not given beside the values; conditions: 10 minute exposure
Excerpt: The SF-HL strain of permethrin-resistant human head lice (Pediculus humanus capitis, Phthiraptera:Pediculidae) is collected from infested children in Plantation and Homestead, Fla. and is maintained on an in vitro feeding system at the University of Massachusetts at Amherst, Mass. as described by Yoon et al. (2006). Lice are maintained without a human host on the in vitro rearing system from about 24 to about 36 generations. Permethrin-resistant SF-HL are selected periodically using 1% permethrin-treated filter papers (Yoon et al. 2006). Filter papers (35 mm diameter, Whatman No. 1) are immersed into 1% permethrin dissolved in acetone (w/v) for 10 seconds and is air dried in a dark fumehood from about 20 to about 30 minutes. Mixed developmental stages (first instars to adult) are placed on the treated filter paper and exposed for about 5 hours. Surviving lice are transferred back into the feeding system. The SF-HL strain are susceptible to Ovide® (0.5% malathion), but resistant to Nix® (1% permethim) and cross-resistant to DDT treatments. (Moon et al. 2003).
Mortality bioassays are performed to compare lethal time to 50% mortality values (LT50) between the ivermectin formulations, Nix®, and Ovide®. Experimental lice are newly hatched first instars (less than 24 hours old). The lice are randomly taken from the in vitro rearing system, where the lice take an overnight blood meal. Lice (about 30 lice/treatment) are placed on an individual hair tuft (about 300 strands, about 4 cm in length) using sterile forceps, and the treatment is gently rubbed into the hair until saturation occurs.
After a 10 minute exposure period, the hair tuft with lice are washed sequentially in three separate water baths, containing about 10 ml of ddH2O for about 5 seconds each. The washed hair tuft with lice is blotted onto stacks of filter paper and air dried for about 5 minutes. Any lice dislodged during treatment or washing are placed back onto the treated hair tuft. After drying, the treated hair tuft with lice is examined under a dissecting microscope and the number of dead lice is recorded.
A louse is considered dead if it can not right itself when inverted and when its legs have ceased all movements when probed. Treated hair tufts with lice are then placed onto the feeding membrane in the in vitro rearing system and are maintained at 31° C. and 75% humidity. The numbers of dead lice are reassessed at 10 minute intervals until a greater than 90% mortality is achieved. The timing for mortality begins immediately following the 10 minute exposure period. Because of this, mortality is not assessed during the washing and drying intervals (about 5 minutes). Log time versus logit percent mortality regression lines are generated to determine LT50 and LT95 values and maximum log-likelihood ratio tests are performed to test the equality (slope and intercept) of the regression lines (p<0.05, Polo PC, LeOra Software, 1987).
To determine whether ivermectin in formulation performs better than ivermectin alone, blood-fed lice are placed onto 0.5% (w/v) ivermectin formulation-treated hair tufts as described above. Blood-fed lice are also placed onto hair tufts that are treated with 0.5% ivermectin in acetone (acetone is allowed to volatilize in a fumehood for about 1 hour prior to transferring lice to the treated hair tuft), washed, and transferred to the in vitro rearing system as described above.

[4] = SF-HL lice, Ovide values are estimated times

## 22,23-dihydroavermectin B1a and B1b [ivermectin]
Head lice [1]; single oral 200 μg/kg dose, n=26 (Glaziou et al. 1994)
  effect against head lice in humans: effective
Head lice [1]; single oral dose of 100-200 μg/kg (Dunne et al. 1991)
  results against head lice infestation: Positive, but not absolute, results

## Clc1ccc(C(c2ccc(Cl)cc2)C(Cl)(Cl)Cl)cc1 [DDT]
SF-HL strain
  status of the SF-HL strain towards the treatment: cross-resistant

## Cl[C@H]1[C@H](Cl)[C@@H](Cl)[C@@H](Cl)[C@H](Cl)[C@H]1Cl [lindane]
Head lice [2]; reports in other parts of the world
  efficacy for treating head lice: 61% and 93%
Head lice [2]; reports in the U.S.
  efficacy for treating head lice: 17%

## ivermectin [0.5% (non-formulated)]
[3]; [4]
  LT50 (lethal time to 50% mortality): 221.8
  LT95: 419.4
[3]; SF-HL
  times faster than Nix at the LT50: 27.9 times
  times faster than Nix at the LT95: 51.5 times
  times faster than ddH2O treatment at the LT50: 96.7 times
  times faster than ddH2O treatment at the LT95: 103.0 times
  times faster than placebo formulation at the LT50: 31.2 times
  times faster than placebo formulation at the LT95: 82.4 times
